According to patent US9044428B2, “Neuritogenic peptides” (Neoloch ApS, priority 2005, dated 2015):
Peptide text beside a SMILES is read from it.

Experiments:
[1] = test system: Primary cultures of CGN; experiment: Survival of CGN induced to undergo apoptosis (low KCl) in vitro; assay type: cell-based, rat; conditions: apoptosis induced by reducing KCl to 5 mM, two days
Procedure: Primary cultures of CGN were plated at a density of 100 000 cells/cm^2 on poly-L-lysine coated 8-well permanox slides in Neurobasal-A medium (Gibco BRL) supplemented with 2% (v/v) B27, 0.5% (v/v) glutamax, 100 units/mL penicillin, 100 μg/mL streptomycin and KCl, making the final concentration of KCl in the medium 40 mm, Twenty-four hours after plating, Ara-C (Sigma-Aldrich) was added to a final concentration of 10 μm to avoid proliferation of glial cells, after which the neurons were allowed to differentiate for a further 6 days at 37° C. Apoptotic cell death was induced by washing twice and changing the medium to Basal Medium Eagle (BME; Gibco BRL) supplemented with 1% (v/v) glutamine, 100 U/mL, penicillin and 100 μg/mL streptomycin, 3.5 g d-glucose/L and 1% (v/v) sodium pyruvate (Gibco BRL) together with various concentrations of peptide. Thereby the concentration of potassium in the cultures was reduced to 5 mm KCl (D'Mello et al. 1993). Two days after induction of apoptosis, the cells were fixed with 4% (v/v) formaldehyde and stained with Hoechst 33258 as described for the survival assay employing hippocampal neurons.

[2] = Hematocrit in rats after the brain lesion; assay type: in vivo; conditions: rat after brain lesion, peptide 1 mg/100 g s.c., p>0.02
Procedure: (§1) Male rats (wistar) (tree groups, 5 rats/group) were injected s.c with different Epo peptides (each group individually with Epo 2, Epo 3 or Epo 4) three times according to the scheme: • 1. the day before the lesion: a single injection of a peptide per animal (1 mg/100 g animal weight); • 2. the 1st day after the lesion: a single injection of a peptide per animal (1 mg/100 g animal weight): • 3. the 2nd day after the lesion: a single injection of a peptide per animal (1 mg/100 g animal weight); • 4. the 3rd day after the lesion: animals are sacrificed.
(§2) Control groups were a group (4 rats) injected with the vehicle (water) and a group (4 rats), injected with human recombinant EPO (hrEPO) in dose 50 μg/100 g rat according to the above scheme.

[3] = test system: Cerebellar granule neuron (CGN) cultures; experiment: Stimulation of neurite outgrowth from cerebellar granule neurons in vitro; assay type: cell-based, rat; conditions: 24 h treatment of CGN cultures
From the text: Cerebellar granule neuron (CGN) cultures were obtained from 3-4-day-old Wistar rats (Charles River, Sulzfeld, Germany, or Moellegaard, Denmark) as previously described by Schousboe et al. (1989). Briefly, the cerebella were dissected, cleared of meninges and blood vessels, chopped, and trypsinized. The neurons were washed in the presence of DNAse 1 and soybean trypsin inhibitor (Sigma), and cellular debris was pelleted by centrifugation; the cells resuspended and then plated on poly-L-lysine (PLL; Sigma)-coated or uncoated microtiter plates in Neurobasal medium supplemented with 4% (w/v) bovine serum albumin (BSA), 2% (v/v) B27, 1% (v/v) glutamax, 100 U/ml penicillin, 100 gi/ml streptomycin, 4.5 g D-glucose/L (Sigma) 0.25% (v/v) sodium pyruvate, and 2% (v/v) 1 M HEPES (Gibco BRL).

[4] = test system: rat brain after TBI; experiment: Neuroplasticity and neurite outgrowth in vivo after TBI (PSA-NCAM and GAP-43 immunostaining); conditions: for neurite outgrowth in vivo (GAP-43 immunostaining): cortical lesion area, choroid plexus, hippocampus, hypothalamus; for level of PSA-NCAM staining: area adjusted to the lesion and subventricular zone
Procedure: as §1, §2
(§3) A traumatic brain injury (TBI) was induced by applying dry ice (−78 C) to the extracranial surface of the skull for 60 sec, which induces a focal injury in the right fronto-parietal cortex. Three days after the lesion (3 dpl) rats were deeply anesthetized with Brietal (10 mg/100 gr) and fixed by transcardial perfusion with 0.9% NaCl and 0.3% heparin, followed by Zamboni's fixative. The brains were removed, dehydrated according to the standard protocol, embedded in paraffin, and cut in 6-μm-thick frontal sections for further evaluation by immunohistochemistry and TUNEL.
(§4) For immunohistochemistry the sections of the brains were incubated overnight with polyclonal rabbit anti-cow GFAP, GAP-43, 8-oxoguanine, or PSA-NCAM antibodies 1:250 (Dakopatts). The primary antibodies were detected in the sections with biotinylated secondary antibodies followed by incubation with streptavidin-biotin-peroxidase (30 min). Afterwards, the sections were incubated with biotinylated tyramide and streptavidin-peroxidase complex (NEN, Life Science Products, USA, code NEL700A) prepared following the manufacturer recommendations, and visualized with 0.015% H2O2 in DAB/TBS for 10 min.

[5] = test system: human erythroleukemia cells TF-1; experiment: Proliferation of TF-1 cells (BrdU incorporation ELISA); assay type: cell-based; conditions: for stimulation of haemopoietic cell proliferation (general conclusion): no concentration stated
Procedure: Evaluation of the effect of four EPO-derived peptides on cell proliferation was performed using a TF-1 cell line. The TF-1 cell line was established from sample from patient with severe pancytopenia (human erythroleukemia). The growth of these cells is dependent of the presence of the granulocyte-macrophage colony-stimulating factor (GM-SCF). The TF-1 cells were grown in Dulbecco's Modified Eagle Medium (DMEM) supplemented with 10% (v/v) heat inactivated foetal calf serum (FCS), 2 mM GlutaMAX, penicillin (100 U/ml) and streptomycin (100 μg/ml), 10 mM HEPES, 1 mM sodium pyruvate, 1% fungizone. The growth medium was supplemented with 2 ng/ml GM-CSF. Cell proliferation was determined using a Biotrak ELISA system, version 2 (Amersham Biosciences, UK). The procedure is based on measurement of the levels of 5-bromo-2′-deoxyuridine (BrdU) incorporation during DNA synthesis in proliferating cells. Briefly, passaged cells were washed once with starving medium (culturing medium without GM-CSF) then plated in 96-well Nuclon culture microplates (Nuno, Denmark) at a density of 5000 cells/well and grown in starving medium containing 0.008, 0.04, 0.2, 1.0, 5.0, 25 and 50 μg/ml of the tested compounds. As a positive control the human recombinant erythropoietin (EPO) (Calbiochem, Denmark) was used in a concentration of 2.0 ng/ml. TF-1 cells were allowed to grow in the presence of peptides for 24 h and than to all wells (except negative controls) BrdU was added to a final concentration of 10 μM and cultures were further incubated for 24 h, fixed and processed according to the procedure recommended by manufacturer, […]

[6] = test system: rat brain after TBI; experiment: Astrocytosis after traumatic brain injury (GFAP IHC); assay type: in vivo; conditions: s.c., 3 days after lesion
Procedure: as §1, §2
A traumatic brain injury (TBI) was induced by applying dry ice (−78 C) to the extracranial surface of the skull for 60 sec, which induces a focal injury in the right fronto-parietal cortex. […]
For immunohistochemistry the sections of the brains were incubated overnight with polyclonal rabbit anti-cow GFAP, GAP-43, 8-oxoguanine, or PSA-NCAM antibodies 1:250 (Dakopatts). The primary antibodies were detected in the sections with biotinylated secondary antibodies followed by incubation with streptavidin-biotin-peroxidase (30 min). […]

[7] = test system: rat brain after TBI; experiment: Oxidative DNA damage after traumatic brain injury (8-oxoguanine immunostaining); assay type: in vivo; conditions: s.c., 3 days after lesion
Procedure: as §1, §2, §3, §4

[8] = biological target: T1, recombinant erythropoietin receptor (EPOR-Fc) (Homo sapiens, UniProt P19235); experiment: SPR binding of soluble EPOR-Fc to immobilized Epo 3 peptide
T1 construct: the chip was incubated with soluble recombinant EPOR-Fc under standard conditions
T1 sequence (P19235 25-250 limits assumed): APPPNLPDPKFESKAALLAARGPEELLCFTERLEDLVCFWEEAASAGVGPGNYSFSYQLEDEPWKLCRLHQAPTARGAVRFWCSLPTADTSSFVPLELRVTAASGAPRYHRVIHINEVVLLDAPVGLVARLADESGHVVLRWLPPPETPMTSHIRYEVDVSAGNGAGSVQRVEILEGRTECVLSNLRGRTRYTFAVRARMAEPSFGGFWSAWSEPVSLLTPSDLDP
Procedure: The binding of Epo 3 to EPOR-Fc was studied by SPR analysis. The Epo 3 peptide was immobilized on a chip and the chip was incubated with soluble recombinant EPOR-Fc under standard conditions. Three independent experiments were performed. […] The results of binding are shown on FIG. 16.

[9] = test system: rat brain after TBI; experiment: Programmed cell death after traumatic brain injury (TUNEL); assay type: in vivo; conditions: s.c., 3 days after lesion
Procedure: as §1, §2
as §3, with “TUNEL. […]” for “TUNEL.”

[10] = Epo 3 ionic bonded with the chip, soluble EPOR-Fc, three experiments

Compound	protection of CGN induced to undergo apoptosis (neuronal survival) [1]	effect on the hematocrit vs control [2]	neurite outgrowth from CGN (neuritogenic activity) [3]	neurite outgrowth in vivo (GAP-43 immunostaining) [4]	astrocytosis (reactive astrogliosis) by GFAP IHC [6]	8-oxoguanine positive cells (oxidative DNA damage) [7]	level of PSA-NCAM staining [4]	proliferation of TF-1 cells ([5]; concentration of 50 μg/ml)	stimulation of haemopoietic cell proliferation (general conclusion) [5]	TUNEL-positive apoptotic cells around the necrotic cavity [9]	other results
NENITVPDTKVNFYAWKR (Derived from human erythropoietin, Swiss Prot P01588) [Epo2, peptide fragment derived from human erythropoietin]	strongest neuroprotective effect	no statistically significant effect	capable of stimulating neurite outgrowth	stimulates neurite outgrowth	mast pronounced increase in reactive astrogliosis	lowest number of the 8-oxoguanine positive cells	–	–	–	–	effect on the hematocrit vs control ([2]; listed as Epo 2): no significant effect; neurite outgrowth from CGN (neuritogenic activity) ([3]; listed as SEQ ID NO: 2): strongly induce neurite outgrowth; proliferation of TF-1 cells ([5]; concentrations of 25 and 50 μg/ml): stimulates proliferation of TF-1 cells
CC(C)C[C@H](NC(=O)CNC(=O)[C@H](CO)NC(=O)[C@@H](NC(=O)[C@H](C)NC(=O)[C@H](CCCCN)NC(=O)[C@H](CC(=O)O)NC(=O)[C@@H](NC(=O)[C@H](Cc1c[nH]cn1)NC(=O)[C@H](CC(C)C)NC(=O)[C@@H](N)CCC(N)=O)C(C)C)C(C)C)C(=O)N[C@@H](CCCNC(=N)N)C(=O)N[C@@H](CO)C(=O)N[C@@H](CC(C)C)C(=O)N[C@H](C(=O)N[C@H](C(=O)N[C@@H](CC(C)C)C(=O)N[C@@H](CC(C)C)C(=O)N[C@@H](CCCNC(=N)N)C(=O)N[C@@H](C)C(=O)O)[C@@H](C)O)[C@@H](C)O [Epo3] (H-QLHVDKAVSGLRSLTTLLRA-OH)	strongest neuroprotective effect	no statistically significant effect	capable of stimulating neurite outgrowth	stimulates neurite outgrowth	–	lowest number of the 8-oxoguanine positive cells	significantly increases the level of PSA-NCAM staining	stimulate proliferation of TF-1 cells	most potent among them	lowest level of apoptosis	effect on the hematocrit vs control ([2]; listed as Epo 3): no significant effect; binding to EPOR ([8]; Epo 3 covalently bonded to the chip): does not bind to EPOR; association rate ka [8, 10]: 2.1*10^4+−1.4*10^4; dissociation rate kd [8, 10]: 4.33*10^−5+−1.62*10^−5; kon ([8]; Epo 3 ionic bonded with the chip, soluble EPOR-Fc, three experiments, read-out: association rate ka): 21000 M⁻¹ s⁻¹; koff ([8]; Epo 3 ionic bonded with the chip, soluble EPOR-Fc, three experiments, read-out: dissociation rate kd): 4.33e-05 s⁻¹; Kd ([8]; Epo 3 ionic bonded with the chip, soluble EPOR-Fc, read-out: overall binding affinity of EPOR to Epo3): 4.48 nM; neurite outgrowth from CGN (neuritogenic activity) ([3]; listed as SEQ ID NO: 3): strongly induce neurite outgrowth
DSRVLERYLLEAKE (Derived from human erythropoietin, Swiss Prot P01588) [Epo1, peptide fragment derived from human erythropoietin]	–	–	–	–	–	–	–	stimulates proliferation of TF-1 cells	–	–	neurite outgrowth from CGN (neuritogenic activity) ([3]; listed as SEQ ID NO: 1): do net have any neuritogenic activity; proliferation of TF-1 cells ([5]; concentration of 0.2 μg/ml): probably had a stimulatory effect
RVYSNFLRGKLKLYTGEA (Derived from human erythropoietin, Swiss Prot P01588) [Epo4, peptide fragment derived from human erythropoietin]	strongest neuroprotective effect	no statistically significant effect	capable of stimulating neurite outgrowth	–	least effect	significantly reduced oxidative DNA damage	significantly increases the level of PSA-NCAM staining	stimulate proliferation of TF-1 cells	most potent among them	lowest level of apoptosis	neurite outgrowth from CGN (neuritogenic activity) ([3]; listed as SEQ ID NO: 4): strongly induce neurite outgrowth
